Measured values: patent US12433892B2, “Compositions and methods of treatment for neurological disorders comprising depression” (Gliapharm SA, priority 2018, dated 2025)
Counter-ions that a name gives are not always drawn.

Key:
astrocytes [1] = assay: Intracellular glycogen quantification; type: cell-based, mouse; conditions: Prestwick hits; 10 uM, 3 h
[2] = test system: C57Bl/6 male and female mice; assay: In vivo chronic toxicity (28 days)
Description: During this period, clinical symptoms and weight were recorded.
Chronic toxicity was assessed.

[3] = test system: cerebral extracellular lactate; assay: In vivo pharmacodynamics: lactate biosensors in cortex; design: species or system mouse; conditions: 10 mg/kg per os
Description: Extracellular levels of lactate were monitored in vivo using lactate biosensors (Pinnacle Technology), according to the manufacturer's instructions. Cannulae were surgically implanted in mice cerebral cerebral motor cortex areas M1/M2 (coordinates: +1.94 mm (to bregma), lateral −1.4 mm (to mideline), ventral −1.0 mm (to dura)) 5-7 days before administration of the compounds. Drugs were administered per os as previously described, and cerebral levels of extracellular lactate were dynamically recorded for 6 hours. Mice were administered vehicle alone first, followed 3 hours later by vehicle or drug (10 or 100 mg/kg). Area Under the Curve (AUC) quantifying the fluctuations of extracellular lactate concentrations for each of the compound tested was calculated using Graphad Prism and the ratio of AUC after drug over Vehicle administration was calculated. Groups of 8 male mice were used for each condition.
To measure biological effect of lead molecules in vivo in the brain, lactate levels were quantified after administration of the drug by using lactate biosensors implanted in the cortex of freely moving mice.

[4] = In vivo pharmacokinetics (PFC microdialysis and plasma); design: species or system mouse; conditions: after gavage with 100 mg/kg
Description: Mice were anesthetized using isoflurane (2% and 800 mL/min O2). Before surgery, Finadyne (1 mg/kg, s.c.) was administered for analgesia during surgery and the post-surgical recovery period. A mixture of bupivacaine and epinephrine was used for local anesthesia of the incision site of the periost of the skull.
The animals were placed in a stereotaxic frame (Kopf instruments, USA). MetaQuant microdialysis probes with a 3 mm exposed polyacrylonitrile membrane (MQ-PAN 3/3, Brainlink, the Netherlands) were implanted into the prefrontal cortex (coordinates for the tip of the probe: AP=+2.0 mm (to bregma), lateral=−0.7 mm (to midline), ventral=−3.3 mm (to dura), with the incisor bar set at 0.0 mm and an angle of 8°). All coordinates were based on “The mouse brain in stereotaxic coordinates” by Paxinos and Franklin (2004). The probes were attached to the skull with a stainless steel screw and dental cement (Fuji Plus Capsules, Henry Schein, the Netherlands).
In the same surgical procedure, a catheter was placed into the jugular vein to accommodate blood sampling. An indwelling cannula was inserted into the right jugular vein, and exteriorized through an incision on top of the skull. The end of the jugular vein catheter was fixed in position with dental acrylic cement and attached to the skull with two stainless steel screws.
Experiments were initiated one day after surgery. The MetaQuant microdialysis probes were connected with flexible PEEK tubing (Western Analytical Products Inc. USA; PK005-020) to a microperfusion pump (CMA Microdialysis) and perfused with aCSF+0.2% BSA at a flow rate of 0.12 μL/min. Ultrapurified water+0.2% BSA was used as the carrier flow at a flow rate of 0.80 μL/min. After a minimum of 1.5 hours of prestabilization, microdialysis samples were collected in 30 minute intervals. Samples were collected into polystyrene microvials (Microbiotech/se AB, Sweden; 4001029) using an automated fraction collector (UV 8301501, TSE, Univentor, Malta). After collection of three basal samples, at t=0 minutes, drug of interest was administered per os. Eight additional samples were collected after compound administration. All samples were stored at −80° C. until off-line analysis.
In parallel, blood samples (50 μL) were taken from the jugular vein through the cannula. These samples were collected at specified intervals into vials containing 5 μL heparin (500 IE/mL in saline). The samples were mixed by inverting the tubes and, subsequently, centrifuged at 4000 rpm (1500×g) for 10 min at 4° C. The supernatant was stored as plasma in 1.5 mL Eppendorf vials (Sarstedt, Germany) at −80° C. until off-line analysis.
At the end of the experiment, the animals were euthanized and terminal brain tissue was collected for visual histological verification of the probe positions.
PK was measured for GP-04, GP-05, GP-07, GP-R1 and GP-P1 in the PFC (prefrontal cortex) and plasma of wild type C56Bl/6 mice by CRO Brainsonline.

C57Bl/6 mice [5] = assay: Grip strength test (GST); type: in vivo, mouse; conditions: 100 mg/kg per os, 1.5 hr
Description: (§1) The depression mouse model features wild-type C57Bl/6 laboratory mice without any transgenic changes. To ensure that the actions of the tested molecules in the animal models of depression are not due to effects on locomotor activity or muscle strength in animals, molecules are administered to mice that are then tested in the grip strength test (GST) and in the open-field test (OFT) following the protocols described in Carrard et al. (Carrard, Elsayed, Margineanu, Boury-Jamot, Frangiere, Meylan, Petit, Fiuemlli, Magistretti and Martin. Peripheral administration of lactate produces antidepressant-like effects. Molecular Psychiatry, 2016 Oct. 18, e-pub). If alterations in muscle strength and/or locomotor activity are measured following administration drug, no further analyses are performed with this molecule.
GST is a test used to identify molecules that could modulate mouse grip strength, which might affect results in the FST. 1.5 hr after a single oral molecules administration, mice are placed on a grid dynamometer and the muscle strength (N) or their two front paws or all their four paws is measured in 3 consecutive sessions, and the best score is recorded.

C57Bl/6 mice [6] = assay: Open field test (OFT); type: in vivo, mouse; conditions: 100 mg/kg per os, 1.5 hr
Description: as §1
OFT is a test used to identify molecules that could modulate mouse activity, which might affect results in the FST. 1.5 hr after a single oral molecules administration, mice are placed in a 39 cm (long)×33 cm (large)×33 cm (high) open box and their activity is videotaped for 10 minutes. Mouse activity is then automatically scored using Ethovision pro video tracking system (Noldus).

C57Bl/6 mice [7] = assay: Forced swim test (FST); type: in vivo, mouse; conditions: 100 mg/kg per os, 1.5 hr
Description: as §1
FST is a test used to identify molecules that produce an acute antidepressant-like behavioral response.
1.5 hr after a single oral (vehicle or lactate-enhancing molecules) or intraperitoneal (vehicle, fluoxetine or despratmine) administration, mice are placed in a cylindrical container filled to a depth of 15 cm with water (23-25° C.). 6-min swim session are videotaped, and time spent immobile, which reflects the animal depressive-like behavior, is scored subsequently by an experimenter blind to the conditions used.

primary astrocytes = assay: High throughput screening (HTS) for lactate secretion: acidification of extracellular medium (SNARF5); type: cell-based, mouse; conditions: Appendix I; primary screening confirmation (SNARF5)
Description: Primary cultures of cerebrocortical astrocytes were obtained from 1-2-day-old OF1 mouse pups (Charles River Laboratories). Briefly, cortices were isolated and minced in small pieces under a dissecting microscope. The cells were incubated for 30 min at 37° C. in a solution containing 20 U/ml of papain enzyme (Worthington Biochemical), L-cysteine 1 mM (Sigma), and 10 kU/ml DNase I (Worthington Biochemical) for an enzymatic dissociation. […]
Secretion of lactate in a high-throughput screening (HTS) fashion was measured indirectly through the acidification of extracellular medium. […]
After 90 min stimulation, fluorescence was read at exc. […] The ratio of fluorescence between 630 nm and 580 emission values, which represents extracellular pH, was calculated.
In each plate, 8 wells were used for negative controls (DMSO) and 8 wells were used for positive controls (CCCP 2 uM in DMSO). Z prime values were calculated for each of the plates tested and values<0 were discarded.
The average and SD of compounds' values tested in duplicates were calculated, and compound was noted as HIT when the difference between compound's average and negative control's average was greater than three times the sum of compound's SD and negative controls' SD. […] Scores are calculated as the % of activity compared to the positive control in each plate (which is 100%). […]

astrocytes [8] = assay: Extracellular lactate quantification; type: cell-based, mouse; design: Score_LACTATE / Score Lact.: scale not given here; conditions: Appendix I; secondary screening, dosage of extracellular lactate
Description: Primary cultures of cerebrocortical astrocytes were obtained from 1-2-day-old OF1 mouse pups (Charles River Laboratories). Briefly, cortices were isolated and minced in small pieces under a dissecting microscope. The cells were incubated for 30 min at 37° C. in a solution containing 20 U/ml of papain enzyme (Worthington Biochemical), L-cysteine 1 mM (Sigma), and 10 kU/ml DNase I (Worthington Biochemical) for an enzymatic dissociation. Papain activity was stopped by the addition of fetal calf serum (FCS) to the solution, and a single-cell suspension was then obtained by mechanical dissociation, which consisted in cells trituration in a DMEM (D7777, Sigma-Aldrich) medium (supplemented with 44 mm NaHCO3, and 10 ml/L antibiotic/antimycotic solution) containing 10% FCS. The cells were seeded at an average density of 6×10^4 cells/cm^2 in poly-D-lysine-coated 96, 12 or 6-well culture plates, depending on their use, and incubated at 37° C. in a humidified atmosphere containing 5% CO2/95% air. Culture medium was renewed twice per week. Cells were stimulated and harvested between DIV14 and DIV17, when confluence and cell growth were optimal.
Secretion of L-lactate was determined in the extracellular medium of 96-well plated astrocytes after 90 min stimulation (at 37° C., in 5% CO2/95% air conditions) with the drug of interest. The stimulation medium was composed of D5030 medium (completed with D-glucose 5 mM and 44 mM sodium bicarbonate) for 90 min in concentrations ranging from 0 to 100 μM.
Briefly, 200 μl of a Glycine (Sigma)-Semicarbazide (Acros) 0.2M pH 10 buffer containing 3 mM NAD (Roche) and LDH 14 U/ml (Roche) was added to each well of a 96-well plate containing 30 μl aliquots complemented with 20 μl fresh complete D5030 medium. Samples were incubated at 37° C. for 1 h. After samples cooled down at room temperature, the fluorescence intensity (340 nm excitation/450 nm emission) that represents the amount of NADH produced was measured, and lactate concentration values were determined from a standard curve of L-lactate.
Statistical analysis consisted in ANOVA followed by Fisher LSD post-hoc test for pair-wise comparisons.
Levels of lactate secreted by astrocytes were measured in the extracellular medium at 90 min after stimulation with hits (molecules) from the CDC54K library.

SMILES: COc1ccc(Cc2nccc3cc(OC)c(OC)cc23)cc1OC [Papaverine hydrochloride]
- Glycogen (statistical significance of glycogen degradation) (astrocytes [1]): **** (****p<0.0001)
- chronic toxicity (toxic or safe) ([2]; 10 mg/kg per os once a day, 28 days): safe
- pathological analysis ([2]; chronic 10 mg/kg, liver, kidney): minor treatment-related effects
- cerebral lactate (AUC ratio vs vehicle) [3]: Significant increase
- levels in the PFC [4]: at therapeutic range (100 nM to 1 uM) and sustained over several hours
- grip strength (C57Bl/6 mice [5]): does not affect
- activity (open field) (C57Bl/6 mice [6]): does not affect
- time spent immobile (C57Bl/6 mice [7]): significant reduction

SMILES: O=C(C[n+]1cc(-c2ccccc2)n2c1CCC2)c1ccc(Br)cc1.[Br-] [T0502-5560]
- Score_SNARF (primary astrocytes): 0.8504
- Score_LACTATE (astrocytes [8]): 0.8524
